From patent US20250282828A1, “PEPTIDES FOR THE TREATMENT OF RESPIRATORY INFECTIONS OF VIRAL ORIGIN” (CENTRO DE INGENIERÍA GENÉTICA Y BIOTECNOLOGÍA, priority 2020, published 2025)
Read-outs that look alike come from different tables or passages of the source. Non-standard residues stand in square brackets, D forms with d. Residues, ends and D or L forms follow the SMILES beside them. No end group written: not given here.

What was measured:
AdV 7 Gomen strain = test: Adenovirus type 7 replication in bronchial HAE (qPCR); format: cell-based; details: 50 μM, 24 hours
[1] = test system: herpes simplex virus type 1 (HSV-1); test: HSV-1 replication in primary explants of human nasal mucosa (qPCR); format: cell-based; details: 36 hours
Method: The replication of herpes simplex virus type 1 (HSV-1) was performed in primary explants of human nasal mucosa, according to Glorieux et al. (Glorieux et al. 2011, PLoS ONE, 6(7): e22160, doi: 10.1371/journal.pone.0022160). […] Afterwards, the cultures were washed and kept at 37° C. and 5% CO2 for 36 hours, in presence of the peptides in culture medium. The cultures were harvested, and HSV-1 was quantified by qPCR. The percentages of viral inhibition ranged from 70 to 92% in presence of the peptides (Table 5).

NS1-D2 (Dengue) = target: T1, NS1-D2 (Dengue) (Dengue virus type 2, UniProt P29990); test: BIACORE surface plasmon resonance interaction with immobilized peptide; format: binding, Dengue virus 2
T1 construct: the non-structural protein 1 of the Dengue virus 2 (NS1-D2)

[2] = test system: Parainfluenza virus type 3 (HPIV3); format: cell-based; details: 50 μM; HAE, 3 days
SARS-CoV-2 [3] = test system: SARS-CoV-2
Protein N (SARS-CoV-2) = Protein N (SARS-CoV-2) (Severe acute respiratory syndrome coronavirus 2, UniProt P0DTC9); test: BIACORE surface plasmon resonance interaction with immobilized peptide; format: binding; details: analyte 10-200 nM
SARS-CoV-2 [4] = test system: SARS-CoV-2; remark: listed apart in the source
[5] = test system: capsid protein of the Influenza H1N1 virus; test: BIACORE surface plasmon resonance interaction with immobilized peptide; format: binding
ZIKV E protein (Zika) = target: T2, ZIKV E protein (Zika) (Zika virus, UniProt A0A024B7W1); test: as above; format: binding
T2 construct: the envelope protein of the Zika virus (ZIKV E)

[6] = target: T3, Dengue 2 virus capsid protein (Dengue virus type 2, UniProt P29990); test: as above; format: binding
T3 construct: with the Dengue 2 virus capsid protein

Influenza A H1N1 = format: cell-based; details: 50 μM; tracheo-bronchial HAE
human bocavirus (HBoV) = test: Human bocavirus replication in tracheal HAE (qPCR NS1 region); format: cell-based; details: 50 μM, 72 hours
[7] = test system: respiratory syncytial virus (RSV); test: Respiratory syncytial virus replication in bronchial HAE (RT-qPCR); format: cell-based; details: 50 μM, 10 days
Dengue 2 virus = Dengue 2 virus replication in primary cultures of lung cells (PFU in VeroE6); format: cell-based; details: 48 hours
Method: The cultures were treated with the peptides for 2 or 24 hours, at concentrations of 0.01 to 100 μM before viral challenge. The medium was discarded and the cells were infected with Dengue 2 virus, at an MOI of 10 for 2 hours at 37° C. and 5% CO2. The virus was eliminated, a wash was then performed and the cultures were treated again with peptides in DMEM medium, and incubated for 48 hours at 37° C. and 5% CO2. Subsequently, the cultures were collected to assess viral performance on VeroE6 cells. For this, the cells were seeded in 24-well plates and when they reached confluence they were infected with serial 10-fold dilutions of the supernatants, incubated for 1 hour at 37° C. and 5% CO2. Next, a wash was carried out with PBS, and a layer of agar in 2× DMEM (1:1) added. The layer was allowed to solidify and incubated for 48 hours at 37° C. 5% CO2. The plates were stained with crystal violet, for the determination of the number of PFUs. The peptides inhibited between 68 and 88% of viral replication (Table 5).

T3 sequence (P29990 1-100 limits assumed): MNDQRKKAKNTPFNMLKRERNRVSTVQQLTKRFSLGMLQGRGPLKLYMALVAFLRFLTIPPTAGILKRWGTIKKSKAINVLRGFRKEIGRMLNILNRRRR
T2 sequence (A0A024B7W1 291-794): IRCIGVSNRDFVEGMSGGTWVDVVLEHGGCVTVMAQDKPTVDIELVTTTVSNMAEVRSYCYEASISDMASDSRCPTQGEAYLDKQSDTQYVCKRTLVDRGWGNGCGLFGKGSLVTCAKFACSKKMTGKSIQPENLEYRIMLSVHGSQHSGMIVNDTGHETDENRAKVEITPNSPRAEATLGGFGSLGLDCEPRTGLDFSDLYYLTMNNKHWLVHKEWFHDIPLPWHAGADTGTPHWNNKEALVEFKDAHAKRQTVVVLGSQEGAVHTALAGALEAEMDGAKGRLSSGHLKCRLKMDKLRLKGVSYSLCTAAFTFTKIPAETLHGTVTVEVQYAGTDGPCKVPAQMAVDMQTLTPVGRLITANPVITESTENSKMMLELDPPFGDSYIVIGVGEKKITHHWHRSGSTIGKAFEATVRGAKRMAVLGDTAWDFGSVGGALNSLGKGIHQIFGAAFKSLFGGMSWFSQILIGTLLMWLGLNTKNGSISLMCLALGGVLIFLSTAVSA
T1 sequence (P29990 776-1127 limits assumed): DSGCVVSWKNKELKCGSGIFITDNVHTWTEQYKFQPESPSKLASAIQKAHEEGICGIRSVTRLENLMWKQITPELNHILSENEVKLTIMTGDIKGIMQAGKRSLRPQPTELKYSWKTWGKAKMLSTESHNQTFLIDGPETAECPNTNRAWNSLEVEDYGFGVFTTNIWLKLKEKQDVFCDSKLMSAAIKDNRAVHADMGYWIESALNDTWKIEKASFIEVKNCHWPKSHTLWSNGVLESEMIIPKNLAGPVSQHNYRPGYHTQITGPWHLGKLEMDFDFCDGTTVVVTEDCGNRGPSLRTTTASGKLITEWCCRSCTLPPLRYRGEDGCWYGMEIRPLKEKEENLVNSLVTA

Compound: NLNDRLASLYDKV [SEQ ID NO: 15]
- Adenovirus Ad7 Inhib. % (AdV 7 Gomen strain): 78%
- Herpes simplex HSV-1 Inhib. % ([1]; 50 μM): 81%
- interaction (NS1-D2 (Dengue)): showed interaction
- Parainfluenza Type 3 Inhib. % [2]: 69%
- Bronchial HAE Inhibition % (SARS-CoV-2 [3]; 72 h, 50 μM): 90%
- Nasal HAE Inhibition % (SARS-CoV-2 [3]; 72 h, 50 μM): 86%
- Kd (Protein N (SARS-CoV-2)): 7820 nM
- Inhibition % (SARS-CoV-2 [4]; 96 h, 50 μM): 87.1%
- Kd [5]: 189 nM
- interaction [5]: showed interaction
- Kd (ZIKV E protein (Zika)): 62.4 nM
- interaction (ZIKV E protein (Zika)): showed interaction
- Kd [6]: 1270 nM

Compound: RVTQMNLADRLASLYDKV [SEQ ID NO: 16]
- Inhibition % (SARS-CoV-2 [4]; 96 h, 100 μM): 79.6%

Compound: RVTQMNANDRLASLYDKV [SEQ ID NO: 9]
- Adenovirus Ad7 Inhib. % (AdV 7 Gomen strain): 79%
- Influenza A H1N1 Inhib. % (Influenza A H1N1): 89%
- Inhibition % (SARS-CoV-2 [4]; 96 h, 100 μM): 83.7%
- Bocavirus HBoV-1 Inhib. % (human bocavirus (HBoV)): 75%

Compound: CSCC[C@H](NC(=O)[C@H](CCC(N)=O)NC(=O)[C@@H](NC(=O)[C@@H](NC(=O)[C@H](CCCNC(=N)N)NC(C)=O)C(C)C)[C@@H](C)O)C(=O)N[C@H](CC(N)=O)C(=O)N[C@@H](CC(C)C)C(=O)N[C@@H](CC(N)=O)C(=O)N[C@@H](CC(=O)O)C(=O)N[C@@H](CCCNC(=N)N)C(=O)N[C@@H](CC(C)C)C(=O)N[C@@H](C)C(=O)N[C@@H](CO)C(=O)N[C@@H](CC(C)C)C(=O)N[C@@H](Cc1ccc(O)cc1)C(=O)N[C@@H](CC(=O)O)C(=O)N[C@@H](CCCCN)C(=O)N[C@H](C(=O)O)C(C)C [SEQ ID NO: 3] (Ac-RVTQM[dN]LNDRLASLYDKV-OH; C-terminus assumed)
- Adenovirus Ad7 Inhib. % (AdV 7 Gomen strain): 82%
- Herpes simplex HSV-1 Inhib. % ([1]; 50 μM): 73%
- Sincitial respiratory virus Inhib. % [7]: 87%
- Influenza A H1N1 Inhib. % (Influenza A H1N1): 93%
- Inhibition % (SARS-CoV-2 [4]; 96 h, 100 μM): 85.4%
- Bocavirus HBoV-1 Inhib. % (human bocavirus (HBoV)): 80%

Compound: RVTQMNLNDRLAALYDKV [SEQ ID NO: 18]
- Inhibition % (SARS-CoV-2 [4]; 96 h, 100 μM): 69.2%

Compound: RVTQANLNDRLASLYDKV [SEQ ID NO: 8]
- Parainfluenza Type 3 Inhib. % [2]: 73%
- Bronchial HAE Inhibition % (SARS-CoV-2 [3]; 72 h, 100 μM): 92%
- Nasal HAE Inhibition % (SARS-CoV-2 [3]; 72 h, 100 μM): 88%
- Inhibition % (SARS-CoV-2 [4]; 96 h, 100 μM): 90.2%
- Dengue 2 Inhib. % (Dengue 2 virus; 50 μM): 72%
- Bocavirus HBoV-1 Inhib. % (human bocavirus (HBoV)): 87%

Compound: RVTAMNLNDRLASLYDKV [SEQ ID NO: 7]
- Adenovirus Ad7 Inhib. % (AdV 7 Gomen strain): 69%
- Influenza A H1N1 Inhib. % (Influenza A H1N1): 70%
- Inhibition % (SARS-CoV-2 [4]; 96 h, 100 μM): 92.4%
- Dengue 2 Inhib. % (Dengue 2 virus; 100 μM): 87%

Compound: RVTQMNLNDRLASLYAKV [SEQ ID NO: 12]
- Inhibition % (SARS-CoV-2 [4]; 96 h, 100 μM): 77.4%

Compound: NDRLASLYDKV [SEQ ID NO: 14]
- Sincitial respiratory virus Inhib. % [7]: 82%
- interaction (NS1-D2 (Dengue)): showed interaction
- Kd (Protein N (SARS-CoV-2)): 1140 nM
- Influenza A H1N1 Inhib. % (Influenza A H1N1): 79%
- Inhibition % (SARS-CoV-2 [4]; 96 h, 50 μM): 83.2%
- Kd [5]: 4670 nM
- interaction [5]: showed interaction
- Dengue 2 Inhib. % (Dengue 2 virus; 50 μM): 70%
- Kd (ZIKV E protein (Zika)): 3200 nM
- interaction (ZIKV E protein (Zika)): showed interaction
- Kd [6]: 5910 nM

Compound: RVTQMNLNDALASLYDKV [SEQ ID NO: 17]
- Inhibition % (SARS-CoV-2 [4]; 96 h, 100 μM): 72.7%

Compound: CSCC[C@H](NC(=O)[C@H](CCC(N)=O)NC(=O)[C@@H](NC(=O)[C@@H](NC(=O)[C@H](CCCNC(=N)N)NC(C)=O)C(C)C)[C@@H](C)O)C(=O)N[C@@H](CC(N)=O)C(=O)N[C@@H](CC(C)C)C(=O)N[C@@H](CC(N)=O)C(=O)N[C@H](CC(=O)O)C(=O)N[C@@H](CCCNC(=N)N)C(=O)N[C@@H](CC(C)C)C(=O)N[C@@H](C)C(=O)N[C@@H](CO)C(=O)N[C@@H](CC(C)C)C(=O)N[C@@H](Cc1ccc(O)cc1)C(=O)N[C@@H](CC(=O)O)C(=O)N[C@@H](CCCCN)C(=O)N[C@H](C(=O)O)C(C)C [SEQ ID NO: 5] (Ac-RVTQMNLN[dD]RLASLYDKV-OH; C-terminus assumed)
- Inhibition % (SARS-CoV-2 [4]; 96 h, 100 μM): 85.3%

Compound: RATQMNLNDRLASLYDKV [SEQ ID NO: 6]
- Inhibition % (SARS-CoV-2 [4]; 96 h, 100 μM): 82.2%

Compound: CSCC[C@H](NC(=O)[C@H](CCC(N)=O)NC(=O)[C@@H](NC(=O)[C@@H](NC(=O)[C@H](CCCNC(=N)N)NC(C)=O)C(C)C)[C@@H](C)O)C(=O)N[C@@H](CC(N)=O)C(=O)N[C@@H](CC(C)C)C(=O)N[C@H](CC(N)=O)C(=O)N[C@@H](CC(=O)O)C(=O)N[C@@H](CCCNC(=N)N)C(=O)N[C@@H](CC(C)C)C(=O)N[C@@H](C)C(=O)N[C@@H](CO)C(=O)N[C@@H](CC(C)C)C(=O)N[C@@H](Cc1ccc(O)cc1)C(=O)N[C@@H](CC(=O)O)C(=O)N[C@@H](CCCCN)C(=O)N[C@H](C(=O)O)C(C)C [SEQ ID NO: 4] (Ac-RVTQMNL[dN]DRLASLYDKV-OH; C-terminus assumed)
- Bronchial HAE Inhibition % (SARS-CoV-2 [3]; 72 h, 100 μM): 85%
- Nasal HAE Inhibition % (SARS-CoV-2 [3]; 72 h, 100 μM): 80%
- Inhibition % (SARS-CoV-2 [4]; 96 h, 100 μM): 92.4%

Compound: SEQ ID NO: 19: synthetic peptide related to SEQ ID NO: 1, obtained by solid phase synthesis (RVTQMNLNDRLASLYDKV; Description of the Artificial Sequence synthetic peptide where N6 is a D amino acid)
- Sincitial respiratory virus Inhib. % [7]: 75%
- Bronchial HAE Inhibition % (SARS-CoV-2 [3]; 100 µM): 86%
- Nasal HAE Inhibition % (SARS-CoV-2 [3]; 100 µM): 82%
- Influenza A H1N1 Inhib. % (Influenza A H1N1): 67%
- Inhibition % (SARS-CoV-2 [4]; 50 µM): 91.8%
- Dengue 2 Inhib. % (Dengue 2 virus; 50 μM): 68%
- Bocavirus HBoV-1 Inhib. % (human bocavirus (HBoV)): 85%

Compound: RVTQMNLNDRLVSLYDKV [SEQ ID NO: 11]
- Inhibition % (SARS-CoV-2 [4]; 96 h, 100 μM): 73.9%

Compound: SEQ ID NO: 20: synthetic peptide related to SEQ ID NO: 1, obtained by solid phase synthesis (RVTQMNLNDRLASLYDKV; Description of the Artificial Sequence synthetic peptide where N8 is a D amino acid)
- Herpes simplex HSV-1 Inhib. % ([1]; 100 μM): 70%
- Parainfluenza Type 3 Inhib. % [2]: 79%
- Inhibition % (SARS-CoV-2 [4]; 50 µM): 69.8%
- Bocavirus HBoV-1 Inhib. % (human bocavirus (HBoV)): 67%

Compound: RVTQMNLNDRLASLYDAV [SEQ ID NO: 13]
- Adenovirus Ad7 Inhib. % (AdV 7 Gomen strain): 76%
- Herpes simplex HSV-1 Inhib. % ([1]; 50 μM): 78%
- Sincitial respiratory virus Inhib. % [7]: 91%
- Parainfluenza Type 3 Inhib. % [2]: 90%
- Bronchial HAE Inhibition % (SARS-CoV-2 [3]; 72 h, 50 μM): 89%
- Nasal HAE Inhibition % (SARS-CoV-2 [3]; 72 h, 50 μM): 79%
- Inhibition % (SARS-CoV-2 [4]; 96 h, 100 μM): 90.5%

Compound: Ac-RVTQMNLNDRLASLYDKV [SEQ ID NO: 2]
- Sincitial respiratory virus Inhib. % [7]: 83%
- interaction (NS1-D2 (Dengue)): showed interaction
- Parainfluenza Type 3 Inhib. % [2]: 89%
- Bronchial HAE Inhibition % (SARS-CoV-2 [3]; 72 h, 50 μM): 90%
- Nasal HAE Inhibition % (SARS-CoV-2 [3]; 72 h, 50 μM): 80%
- Kd (Protein N (SARS-CoV-2)): 523 nM
- Influenza A H1N1 Inhib. % (Influenza A H1N1): 90%
- Inhibition % (SARS-CoV-2 [4]; 96 h, 50 μM): 95.1%
- Kd [5]: 24.3 nM
- interaction [5]: showed interaction
- Dengue 2 Inhib. % (Dengue 2 virus; 50 μM): 88%
- Kd (ZIKV E protein (Zika)): 18200 nM
- interaction (ZIKV E protein (Zika)): showed interaction
- Kd [6]: 754 nM

Compound: RVTQMNLNDRAASLYDKV [SEQ ID NO: 21]
- inhibition of SARS-CoV-2 in primary cultures of human airway epithelium (SARS-CoV-2 [3]): ≤ 20%
- Inhibition % (SARS-CoV-2 [4]; 96 h, 100 μM): 25.5%

Compound: RVTQMNLNARLASLYDKV [SEQ ID NO: 10]
- Inhibition % (SARS-CoV-2 [4]; 96 h, 100 μM): 70.8%
